Results from ChEMBL document CHEMBL3994568 (2016).

Legend:
Type in all cases: functional
Bacillus = assay: Antibacterial activity against Bacillus proteus ATCC 13315 after 24 hrs by two-fold microbroth dilution method; conditions: ATCC 13315, 24 h
Escherichia coli = assay: Antibacterial activity against Escherichia coli JM109 after 24 hrs by two-fold microbroth dilution method; conditions: JM109, 24 h
Pseudomonas aeruginosa = assay: Antibacterial activity against Pseudomonas aeruginosa ATCC 27853 after 24 hrs by two-fold microbroth dilution method; conditions: ATCC 27853, 24 h
[1] = Antibacterial activity against Eberthella typhosa ATCC 14028 after 24 hrs by two-fold microbroth dilution method; conditions: ATCC 14028, 24 h
Staphylococcus aureus [2] = assay: Antibacterial activity against methicillin-resistant Staphylococcus aureus N315 after 24 hrs by two-fold microbroth dilution method; conditions: N315, 24 h
Staphylococcus aureus [3] = assay: Antibacterial activity against Staphylococcus aureus ATCC 25923 after 24 hrs by two-fold microbroth dilution method; conditions: ATCC 25923, 24 h
Bacillus spizizenii = assay: Antibacterial activity against Bacillus subtilis ATCC 6633 after 24 hrs by two-fold microbroth dilution method; conditions: ATCC 6633, 24 h
Micrococcus luteus = assay: Antibacterial activity against Micrococcus luteus ATCC 4698 after 24 hrs by two-fold microbroth dilution method; conditions: NCTC 2665, 24 h
Cyberlindnera jadinii = assay: Antifungal activity against Candida utilis ATCC 9950 after 24 hrs by two-fold microbroth dilution method; conditions: Williopsis jadinii, ATCC 9950, 24 h
Aspergillus flavus = assay: Antifungal activity against Aspergillus flavus ATCC 204304 after 24 hrs by two-fold microbroth dilution method; conditions: ATCC 204304, 24 h
Saccharomyces cerevisiae = assay: Antifungal activity against Saccharomyces cerevisiae ATCC 9763 after 24 hrs by two-fold microbroth dilution method; conditions: ATCC 9763, 24 h
Candida albicans = assay: Antifungal activity against Candida albicans ATCC 10231 after 24 hrs by two-fold microbroth dilution method; conditions: ATCC 10231, 24 h
Pichia norvegensis = assay: Antifungal activity against Candida mycoderma ATCC 9888 after 24 hrs by two-fold microbroth dilution method; conditions: ATCC 9888, 24 h

Measured: MIC

CCCCCCn1c2ccc(-c3csc(N)n3)cc2c2cc(-c3csc(N)n3)ccc21
64 µg/mL: Staphylococcus aureus [2]
128 µg/mL: Escherichia coli | Pichia norvegensis
32 µg/mL: Pseudomonas aeruginosa | Staphylococcus aureus [3]
512 µg/mL: Bacillus spizizenii | Aspergillus flavus
256 µg/mL: all other assays above

CCCCCCCCn1c2ccc(-c3csc(N)n3)cc2c2cc(-c3csc(N)n3)ccc21
128 µg/mL: Bacillus
64 µg/mL: Staphylococcus aureus [3]
32 µg/mL: Staphylococcus aureus [2]
256 µg/mL: Aspergillus flavus
512 µg/mL: all other assays above

CCn1c2ccc(C(=O)CCl)cc2c2cc(C(=O)CCl)ccc21
128 µg/mL: Saccharomyces cerevisiae | Pichia norvegensis
256 µg/mL: Pseudomonas aeruginosa | Staphylococcus aureus [3] | Micrococcus luteus | Cyberlindnera jadinii | Aspergillus flavus
512 µg/mL: all other assays above

CCCn1c2ccc(-c3csc(N)n3)cc2c2cc(-c3csc(N)n3)ccc21
128 µg/mL: Pseudomonas aeruginosa | Staphylococcus aureus [3] | Bacillus spizizenii | Micrococcus luteus | Cyberlindnera jadinii
64 µg/mL: Candida albicans
256 µg/mL: all other assays above

CCCCCCCCCCn1c2ccc(C(=O)CCl)cc2c2cc(C(=O)CCl)ccc21
128 µg/mL: Pseudomonas aeruginosa | Micrococcus luteus
512 µg/mL: Escherichia coli | Staphylococcus aureus [2] | Aspergillus flavus
256 µg/mL: all other assays above

CCCCCCn1c2ccc(C(=O)CCl)cc2c2cc(C(=O)CCl)ccc21
256 µg/mL: [1] | Micrococcus luteus | Cyberlindnera jadinii | Pichia norvegensis
16 µg/mL: Bacillus | Pseudomonas aeruginosa
512 µg/mL: all other assays above

CCCCCCCn1c2ccc(C(=O)CCl)cc2c2cc(C(=O)CCl)ccc21
256 µg/mL: Pichia norvegensis
512 µg/mL: all other assays above

CCCCCCCCCCCCCCCCn1c2ccc(C(=O)CCl)cc2c2cc(C(=O)CCl)ccc21
512 µg/mL: [1] | Saccharomyces cerevisiae | Candida albicans
128 µg/mL: Staphylococcus aureus [3]
256 µg/mL: all other assays above

CCCCCCCCCCn1c2ccc(-c3csc(N)n3)cc2c2cc(-c3csc(N)n3)ccc21
256 µg/mL: Escherichia coli | Micrococcus luteus | Cyberlindnera jadinii | Saccharomyces cerevisiae
512 µg/mL: Pseudomonas aeruginosa | [1] | Bacillus spizizenii
128 µg/mL: all other assays above

CCCCCn1c2ccc(C(=O)CCl)cc2c2cc(C(=O)CCl)ccc21
256 µg/mL: [1] | Staphylococcus aureus [3] | Candida albicans | Pichia norvegensis
512 µg/mL: Bacillus | Staphylococcus aureus [2] | Bacillus spizizenii | Micrococcus luteus
128 µg/mL: all other assays above

CCCCCCCCCCCCCCCCn1c2ccc(-c3csc(N)n3)cc2c2cc(-c3csc(N)n3)ccc21
128 µg/mL: Bacillus | Escherichia coli | Cyberlindnera jadinii | Aspergillus flavus
256 µg/mL: Staphylococcus aureus [2] | Staphylococcus aureus [3] | Micrococcus luteus | Saccharomyces cerevisiae
512 µg/mL: all other assays above

CCn1cc(C(=O)O)c(=O)c2cc(F)c(N3CCNCC3)cc21 [NORFLOXACIN]
2 µg/mL: Pseudomonas aeruginosa | Staphylococcus aureus [3] | Micrococcus luteus
8 µg/mL: Staphylococcus aureus [2]
4 µg/mL: Bacillus | [1]
1 µg/mL: Bacillus spizizenii
16 µg/mL: Escherichia coli

CCCCn1c2ccc(-c3csc(N)n3)cc2c2cc(-c3csc(N)n3)ccc21
64 µg/mL: Pseudomonas aeruginosa | Pichia norvegensis
256 µg/mL: Staphylococcus aureus [2] | Bacillus spizizenii | Cyberlindnera jadinii | Aspergillus flavus
128 µg/mL: all other assays above

OC(Cn1cncn1)(Cn1cncn1)c1ccc(F)cc1F [FLUCONAZOLE]
8 µg/mL: Cyberlindnera jadinii
32 µg/mL: Candida albicans | Pichia norvegensis
256 µg/mL: Aspergillus flavus
16 µg/mL: Saccharomyces cerevisiae

CCCn1c2ccc(C(=O)CCl)cc2c2cc(C(=O)CCl)ccc21
128 µg/mL: Bacillus
256 µg/mL: Escherichia coli | Pseudomonas aeruginosa | [1] | Cyberlindnera jadinii | Saccharomyces cerevisiae | Candida albicans
512 µg/mL: all other assays above

CCCCCCCCCCCCCCCCCCn1c2ccc(-c3csc(N)n3)cc2c2cc(-c3csc(N)n3)ccc21
128 µg/mL: Escherichia coli
512 µg/mL: Pseudomonas aeruginosa | Staphylococcus aureus [2] | Micrococcus luteus | Pichia norvegensis
256 µg/mL: all other assays above

CCCCn1c2ccc(C(=O)CCl)cc2c2cc(C(=O)CCl)ccc21
128 µg/mL: Cyberlindnera jadinii | Pichia norvegensis
512 µg/mL: Escherichia coli | Pseudomonas aeruginosa | [1] | Saccharomyces cerevisiae | Candida albicans
256 µg/mL: all other assays above

O=C(N[C@H](CO)[C@H](O)c1ccc([N+](=O)[O-])cc1)C(Cl)Cl [CHLORAMPHENICOL]
64 µg/mL: Staphylococcus aureus [2] | Micrococcus luteus
32 µg/mL: Bacillus | [1] | Bacillus spizizenii
8 µg/mL: Staphylococcus aureus [3]

CCCCCCCCn1c2ccc(C(=O)CCl)cc2c2cc(C(=O)CCl)ccc21
256 µg/mL: Pseudomonas aeruginosa | Saccharomyces cerevisiae
512 µg/mL: all other assays above

CCn1c2ccc(-c3csc(N)n3)cc2c2cc(-c3csc(N)n3)ccc21
64 µg/mL: Candida albicans | Pichia norvegensis
512 µg/mL: Staphylococcus aureus [2]
128 µg/mL: Escherichia coli | Micrococcus luteus | Cyberlindnera jadinii
256 µg/mL: all other assays above
